Reference: US10188108B2, “Fused bicyclic heterocycle derivatives as pesticides” (BAYER CROPSCIENCE AKTIENGESELLSCHAFT, priority 2015, dated 2019)
Like-named read-outs stand apart in the source and are kept apart here.

What was measured:
[1] = log P by HPLC on a reversed-phase column (C 18), EEC Directive 79/831 Annex V.A8; assay type: physicochemical; settings: for LOGP_NEUTRAL: pH 7.8, 0.001 molar aqueous ammonium hydrogencarbonate/acetonitrile; for chromatographic logP: reversed-phase HPLC column (C 18)
Protocol: The log P values are measured according to EEC Directive 79/831 Annex V.A8 by HPLC (high-performance liquid chromatography) on a reversed-phase column (C 18). Temperature: 55° C.
The LC-MS determination in the acidic range is effected at pH 2.7 using 0.1% aqueous formic acid and acetonitrile (contains 0.1% formic acid) as eluents; linear gradient from 10% acetonitrile to 95% acetonitrile. Called log P (HCOOH) in the table.
LC-MS determination in the neutral range is effected at pH 7.8 with 0.001 molar aqueous ammonium hydrogencarbonate solution and acetonitrile as eluents; linear gradient from 10% acetonitrile to 95% acetonitrile. Called log P (neutral) in the table.
Calibration is carried out using unbranched alkan-2-ones (having 3 to 16 carbon atoms) with known log P values (log P values determined on the basis of the retention times by linear interpolation between two successive alkanones).

Spodoptera frugiperda = Spodoptera frugiperda - spray test; assay type: in vivo; settings: 500 g/ha, after 7 days, caterpillars on maize leaf discs
Protocol: (§1) • Solvent: 78.0 parts by weight of acetone • 1.5 parts by weight of dimethylformamide • Emulsifier: alkylaryl polyglycol ether
(§2) To produce a suitable preparation of active compound, 1 part by weight of active compound is dissolved using the stated parts by weight of solvent and made up with water containing an emulsifier concentration of 1000 ppm until the desired concentration is attained. To produce further test concentrations, the preparation is diluted with emulsifier-containing water.
Leaf discs of maize (Zea mays) are sprayed with an active compound preparation of the desired concentration and, after drying, populated with caterpillars of the armyworm (Spodoptera frugiperda).
After 7 days, the efficacy in % is determined. 100% means that all the caterpillars have been killed; 0% means that no caterpillars have been killed.

Phaedon cochleariae = Phaedon cochleariae - spray test; assay type: in vivo; settings: after 7 days, larvae on Chinese cabbage leaf discs
Protocol: as §1, §2
After 7 days, the efficacy in % is determined. 100% means that all the beetle larvae have been killed; 0% means that no beetle larvae have been killed.

[2] = acidic range, pH 2.7, 0.1% aqueous formic acid/acetonitrile, 55° C.
[3] = acidic range, pH 2.7, 0.1% aqueous formic acid/acetonitrile, 55° C., read-out: LOGP_HCOOH
[4] = neutral range, pH 7.8, value in preparation example text, read-out: log P (neutral)
[5] = acidic range, pH 2.7, value in preparation example text, read-out: log P (acidic)

Structure (SMILES)	LOGP_HCOOH [1, 2]	efficacy (Spodoptera frugiperda) [%]	LOGP_NEUTRAL ([1]; neutral range, 55° C.)	efficacy (Phaedon cochleariae; 500 g/ha) [%]	also measured
CCSc1c(-c2nc3cc(C(F)(F)F)ncc3n2C)nc2ccc(Cl)cn12 [Example I-3]	3.59	100			
CCSc1c(-c2nc3cc(C(F)(F)F)ncc3n2C)nc2ccc(C(F)(F)F)cn12 [Example I-5]	3.81	100	3.75		
CC[S+]([O-])c1c(-c2nc3cc(C(F)(F)F)ncc3n2C)nc2ccc(C(F)(F)F)cn12 (stereo not drawn) [Example I-8]	3.25	100		100	
CCSc1c(-c2nc3cc(C(F)(F)F)ccc3n2C)nc2ccccn12 [Example I-9]	3.25		3.41	100	
CCS(=O)(=O)c1c(-c2nc3cc(C(F)(F)F)ccc3o2)nc2ccccn12 [Example I-12]	2.92	83	2.94	83	
CCSc1c(-c2nc3cc(C(F)(F)F)ncc3n2C)nc2c(C(F)(F)F)cccn12 [Example I-13]	1.40	100	3.71	100	
CCSc1c(-c2nc3cc(C(F)(F)F)ncc3n2C)nc2c(Cl)cccn12 [Example I-14]	3.33		3.34		
CCSc1cccn2c(SCC)c(-c3nc4cc(C(F)(F)F)ncc4n3C)nc12 [Example I-15]	3.99		3.93		
CCSc1c(-c2nc3cc(C(F)(F)F)ncc3n2C)nc2cc(C(F)(F)F)ccn12 [Example I-16]	3.80	100	3.80	100	
CCSc1c(-c2nc3cc(C(F)(F)F)ncc3n2C)nc2cccc(C(F)(F)F)n12 [Example I-20]	3.50				
CCS(=O)(=O)c1c(-c2nc3cc(C(F)(F)F)ncc3n2C)nc2c(C(F)(F)F)cccn12 [Example I-24]	2.92	100	2.90	100	
CC[S+]([O-])c1c(-c2nc3cc(C(F)(F)F)ncc3n2C)nc2c(C(F)(F)F)cccn12 (stereo not drawn) [Example I-25]	3.29	100	3.21	100	
CCSc1c(-c2nc3cc(C(F)(F)F)ccc3n2C)nc2cccc(C)n12 [Example I-26]	3.35			83	
CCSc1c(-c2nc3cc(C(F)(F)F)ccc3n2C)nc2cccc(C(F)(F)F)n12 [Example I-27]	4.09				
CCSc1c(-c2nc3cc(C(F)(F)F)ccc3n2C)nc2ccc(C(F)(F)F)cn12 [Example I-28]	4.47	100			
CCSc1c(-c2nc3cc(C(F)(F)F)ccc3n2C)nc2ccc(Cl)cn12 [Example I-29]	4.12	100		100	
CCSc1c(-c2nc3cc(C(F)(F)F)ccc3n2C)nc2cc(C(F)(F)F)ccn12 [Example I-30]	4.50	100		83	
CCSc1cccc2nc(-c3nc4cc(C(F)(F)F)ccc4n3C)c(SCC)n12 [Example I-31]	3.95				
CCSc1ccn2c(SCC)c(-c3nc4cc(C(F)(F)F)ccc4n3C)nc2c1 [Example I-32]	4.23				
CCS(=O)(=O)c1c(-c2nc3cc(C(F)(F)F)ccc3n2C)nc2ccc(C(F)(F)F)cn12 [Example I-36]	3.70	100		100	
CCSc1c(-c2nc3cc(C(F)(F)F)ccc3n2C)nc2cc(C)ccn12 [Example I-37]	3.41				
CCSc1c(-c2nc3cc(C(F)(F)F)ccc3n2C)nc2ccc(C)cn12 [Example I-38]	3.57				

Structure (SMILES)	LOGP_HCOOH [1, 2]	efficacy (Spodoptera frugiperda) [%]	LOGP_NEUTRAL ([1]; neutral range, 55° C.)	efficacy (Phaedon cochleariae; 500 g/ha) [%]	also measured
CCS(=O)(=O)c1cccn2c(S(=O)(=O)CC)c(-c3nc4cc(C(F)(F)F)ncc4n3C)nc12 [Example I-39]	2.30	100	2.29	100	
CCS(=O)(=O)c1c(-c2nc3cc4c(cc3[nH]2)OC(F)(F)O4)nc2ccccn12 [Example I-40, 6-[3-(Ethylsulphonyl)imidazo[1,2-a]pyridin-2-yl]-2,2-difluoro-5H-[1,3]dioxolo[4,5-f]benzimidazole]			2.59	100	chromatographic logP [1, 3]: 2.51; chromatographic logP [1, 4]: 2.59
CCS(=O)(=O)c1c(-c2nc3cc(C(F)(F)F)ccc3n2C)nc2ccc(Cl)cn12 [Example I-42]	3.34	100		100	
CCS(=O)(=O)c1c(-c2nc3cc(C(F)(F)F)ccc3s2)nc2ccccn12 [Example I-43]	3.60				efficacy (Phaedon cochleariae; 100 g/ha): 83%
CCS(=O)(=O)c1c(-c2nc3cc(C(F)(F)F)cnc3o2)nc2ccccn12 [Example I-44, 2-[3-(Ethylsulphonyl)imidazo[1,2-a]pyridin-2-yl]-6-(trifluoromethyl) [1,3]oxazolo[5,4-b]pyridine]	2.53	83	2.52	100	chromatographic logP [1, 4]: 2.52
CCSc1c(-c2nc3cc(C(F)(F)F)ncc3n2C)nc2ccc(C)cn12 [Example I-45]	3.20		3.22		
CCS(=O)(=O)c1c(-c2nc3cc(C(F)(F)F)cnc3o2)nc2ccc(C(F)(F)F)cn12 [Example I-47]	3.51	83		100	
CCS(=O)(=O)c1c(-c2nc3cc(C(F)(F)F)cnc3o2)nc2cc(C(F)(F)F)ccn12 [Example I-49]	3.53	100		100	
CCSc1c(-c2nc3cc(C(F)(F)F)cnc3o2)nc2cc(C(F)(F)F)ccn12 [Example I-50]	4.14	100		100	
CCS(=O)(=O)c1c(-c2nc3cc(C(F)(F)F)cnc3s2)nc2ccccn12 [Example I-51]	3.21		3.20		
CC[S+]([O-])c1c(-c2nc3cc(C(F)(F)F)ncc3n2C)nc2ccc(OC)cn12 (stereo not drawn) [Example I-55]	2.54		2.48		
CCS(=O)(=O)c1c(-c2nc3cc(C(F)(F)F)cnc3o2)nc2ccc(C)cn12 [Example I-56]	2.89				
CCSc1c(-c2nc3cc(C(F)(F)F)cnc3o2)nc2cccc(C(F)(F)F)n12 [Example I-57]	4.11				
CCSc1c(-c2nc3cc(C(F)(F)F)cnc3o2)nc2ccc(C(F)(F)F)cn12 [Example I-58]	4.14				
CCSc1c(-c2nc3cc(C(F)(F)F)cnc3o2)nc2ccccn12 [Example I-60, 2-[3-(Ethylsulphanyl)imidazo[1,2-a]pyridin-2-yl]-6-(trifluoromethyl) [1,3]oxazolo[5,4-b]pyridine]			3.15		chromatographic logP [1, 3]: 3.2; chromatographic logP [1, 4]: 3.15
Cn1c(-c2nc3ccccn3c2Cl)nc2cc(C(F)(F)F)ncc21 [Example V-1, 2-(3-Chloroimidazo[1,2-a]pyridin-2-yl)-3-methyl-6-(trifluoromethyl)imidazo[4,5-c]pyridine]					chromatographic logP [1, 4]: 2.38
O=C(O)c1nc2cc(C(F)(F)F)ccn2c1Cl [III-1, 3-Chloro-7-(trifluoromethyl)imidazo[1,2-a]pyridine-2-carboxylic acid]					chromatographic logP [1, 5]: 1.5
CCOC(=O)c1nc2ccccn2c1SCC [XXII-1, Ethyl 3-(ethylsulphanyl)imidazo[1,2-a]pyridine-2-carboxylate]					chromatographic logP [1, 4]: 2.05
CCS(=O)(=O)c1c(C(=O)O)nc2ccccn12 [XXIII-1, 3-(Ethylsulphonyl)imidazo[1,2-a]pyridine-2-carboxylic acid]					chromatographic logP [1, 5]: 0.54
CCOC(=O)c1nc2ccccn2c1S(=O)(=O)CC [XXIV-1, Ethyl 3-(ethylsulphonyl)imidazo[1,2-a]pyridine-2-carboxylate]					chromatographic logP [1, 4]: 1.52
CCSc1c(C(=O)Nc2cc(C(F)(F)F)cnc2Cl)nc2ccccn12 [XXVI-1, N-[2-Chloro-5-(trifluoromethyl)pyridin-3-yl]-3-(ethylsulphanyl)imidazo[1,2-a]pyridine-2-carboxamide]					chromatographic logP [1, 4]: 4.39
